“Also recorded” adds a separate entry of the source.
Test system: TNBC
Test: Neoadjuvant window trial of S-equol in TNBC patients (Example 15)
Format: in vivo, human
Set-up: Cyclin D1 staining, median decrease: unit not given here
Experimental: FIG. 35. Clinical trial with TNBC patients. A neoadjuvant window trial was performed on 39 enrolled patients with TNBC confirmed on diagnostic core needle biopsy. Cohort A (20 patients) received a daily dose of 50 mg BID and Cohort B (19 patients) received a higher dose of 150 mg BID for 10-21 days.
S-equol is a novel oral Estrogen Receptor (ER) Beta agonist with preclinical data showing suppression of TNBC cellular proliferation. A neoadjuvant window trial was performed on 39 enrolled patients with TNBC confirmed on diagnostic core needle biopsy. Cohort A (20 patients) received a daily dose of 50 mg BID and Cohort B (19 patients) received a higher dose of 150 mg BID for 10-21 days. (FIG. 35.) Paired biopsies were evaluable for 36 patients. Primary outcome was a change from pre- to post-treatment Ki-67 and secondary outcomes were included as correlative biomarkers. […] The average decrease in Ki-67 was 8% (P=0.00206, 95% CI−13.46 to −3.26).

Oc1ccc([C@H]2COc3cc(O)ccc3C2)cc1 [S-equol]
mean posttreatment Ki-67 (36 evaluable patients, S-equol 50 mg BID or 150 mg BID for 10-21 days, mean pre-treatment Ki-67 68%): 59%
tolerability (oral, patients with TNBC): well tolerated
proliferation as measured by Ki-67 (in words) (patients with TNBC): inhibition of proliferation
change in CD3 or CD8 staining (pre- and post-treatment paired tumor samples): no significant change; also recorded: did not significantly change
average decrease in Ki-67 (pre- to post-treatment, P=0.00206, 95% CI −13.46 to −3.26): 8%
patients with a Ki-67 decrease of at least 20% from baseline (share of the patients): 28%
Cyclin D1 staining, median decrease (with S-equol exposure, range −27.5-0.0): 12.5
ER-beta expression by IHC (in words) (with exposure to S-equol): decreased
cyclin D1 staining by IHC (in words) (with exposure to S-equol): decreased
ER Beta IHC expression, median decrease (with exposure to S-equol, range −65.00 to −19.50): 45%

— patent US12070444B2, “Modulation of molecular markers using S-equol” (Board of Regents, The University of Texas System, priority 2020, dated 2024)
